Experiments:
PSMA = molecular target: T1, PSMA (Homo sapiens, UniProt Q04609); experiment: Competitive PSMA binding assay on LNCaP cells with ([125I]I-BA)KuE as radioligand; settings: LNCaP cells 150,000/well, ([125I]I-BA)KuE c = 0.2 nM, HBSS (1% BSA), 4°C, 1 h, mean ± SD (n = 3); read-out: IC50 (PSMA affinity)
T1 construct: host or cells: LNCaP human prostate carcinoma cells
Experimental: (§1) Cell culture: PSMA^+ LNCaP cells (CLS: 300265) were grown in DMEM/Nutrition Mix F-12 with Glutamax-I (1:1) (Invitrogen, Life Technologies, Darmstadt, Germany) supplemented with 10% FCS. Cultures were maintained at 37°C in a 5% CO2/humidified air atmosphere. One day prior to the experiment, cells were harvested using Trypsin/EDTA (0.05% and 0.02%) in PBS, centrifuged and resuspended with culture medium. For cell counting, a Countesse automated cell counter (Invitrogen, Carlsbad, USA) was used. All in vitro binding and internalization studies were performed using live cells seeded 1 day prior to the experiment. For IC50 determination, 150,000 cells/mL were transferred to 24-well plates (1 mL/well), and for internalization studies, 125,000 cells/mL were transferred into PLL-coated 24-well plates.
Then, 25 μL/well of either HBSS (1% BSA; control) or of solutions containing the respective unlabelled ligand of interest in increasing concentrations (10^-10-10^-4 M in HBSS (1% BSA)) was added, followed by the addition of 25 μL of ([^125I]I-BA)KuE in HBSS (1% BSA). Experiments were carried out in triplicate for each concentration. The final radioligand concentration was 0.2 nM in all binding assays. Cells were incubated on ice for 60 min. Incubation was terminated by the removal of the incubation medium. Cells were thoroughly rinsed with 250 μL of HBSS. The wash medium was combined with the supernatant of the previous step. This fraction represents the amount of free radioligand. Cells were then lysed using 250 μL of 1 N NaOH, the lysate was transferred to vials and combined with 250 μL of HBSS used for rinsing the wells. Quantification of the amount of free and bound activity was performed in a γ-counter.
The PSMA binding affinities were determined in a competitive binding assay using LNCaP human prostate carcinoma cells and the known high affinity PSMA ligand ([^125I]I-BA)KuE [10] (c = 0.2 nM) as the radioligand. The IC50 values for the metal-free PSMA-inhibiting compounds and their respective ^natGa and ^natLu complexes are summarized in Table 1. HBED-CC-Ahx-KuE and [^natGa]HBED-CC-Ahx-KuE [12] were included in this study as reference compounds.

[1] = Determination of lipophilicity (shake flask, n-octanol/PBS); type: physicochemical
Experimental: To a solution of 0.5 to 1 MBq of radiolabelled peptide in 500 μl of phosphate-buffered saline (PBS, pH 7.4), 500 μl of n-octanol was added (n = 6). Vials were vortexed vigorously for 3 min. To achieve quantitative phase separation, the vials were centrifuged at 6,000 g for 5 min in a Biofuge 15 (Heraeus Sepatech, Osterode, Germany). The activity concentrations in 100 μl-samples of both the aqueous and the organic phase were measured in a γ-counter. Both the partition coefficient P(o/w), which is defined as the molar concentration ratio of a single species A between n-octanol and water at equilibrium, and logP(o/w), which is an important parameter used to characterize lipophilicity of a compound, were calculated.
The partition coefficient logP between n-octanol and PBS was determined for the compounds listed in Table 3 using the shake flask method. All compounds are highly hydrophilic, with the DOTAGA compounds being up to one order of magnitude more hydrophilic than the corresponding DOTA analogues. Amongst all compounds tested, [^68Ga]HBED-CC-Ahx-KuE was the most hydrophilic compound.

[2] = tested on: PSMA-expressing LNCaP cells; experiment: Internalization studies / cell binding in LNCaP cells; type: cell-based, human; settings: 37°C, 1 h, 125,000 cells/well, corrected for unspecific binding
Experimental: as §1
Internalization studies: The culture medium was removed, and the cells were washed once with 500 μL DMEM-F12 (5% BSA) before being left to equilibrate in 200 μL DMEM-F12 (5% BSA) at 37°C for a minimum of 15 min. Then, 25 μL (per well) of either DMEM-F12 (5% BSA) or of a 100-μM PMPA solution (blocking) was added, followed by the addition of 25 μL of ^68Ga/^177Lu-labelled PSMA ligand. The final radioligand concentration was 0.2/0.5 nM in all internalization assays. To determine internalization kinetics, cells were then incubated at 37°C for 5, 15, 30 and 60 min, respectively. Experiments were carried out in triplicate for each time point (control and blocking). Incubation was terminated by placing the plate on ice for approximately 1 min and by subsequent removal of the incubation medium. Cells were thoroughly rinsed with 250 μL of PBS. The wash medium was combined with the supernatant of the previous step. This fraction represents the amount of free radioligand. To remove receptor surface bound radioactivity, the cells were then incubated for 10 min with 250 μL of ice cold PMPA solution (10 μM in PBS). After removal of the supernatant, the cells were thoroughly rinsed with another 250 μL of ice cold PBS. Both fractions were combined. The internalized activity was released by incubation with 250 μL of 1 N NaOH, transferred to vials and combined with 250 μL of 1 N NaOH used for rinsing the wells. Quantification of the amount of free, PMPA-releasable and internalized activity was performed in a γ-counter.
The cellular uptake and internalization kinetics of the different ^68Ga- and ^177Lu-labelled PSMA ligands was determined using PSMA-expressing LNCaP cells. In the case of the ^68Ga-labelled compounds, the final peptide concentration in the assays was 0.2 nM. […] All internalization studies were accompanied by reference studies using ([^125I]I-BA)KuE (c = 0.2 nM). This experimental setup allows data normalization and eliminates the influence of cell count and cell viability on absolute cellular tracer uptake. […] Furthermore, to be able to discriminate between total cellular activity (sum of membrane associated and internalized activity) and internalized activity, all incubations were followed by a washing step with 10 μM PMPA at 4°C to remove specifically cell-surface bound radioligand by displacement.

[3] = Stability in human serum (TLC analysis); type: in vitro ADME; settings: 37°C, 48 h
Experimental: (§2) ^177Lu-10 and ^177Lu-11 were incubated in 80 μL of human serum (37°C) and 80 μL 0.4 M DTPA solution (RT), respectively and after 1, 24 and 48 h, the stability was determined by TLC analysis. The ^68Ga-labelled tracers (40 to 45 MBq) were injected into the tail vein of CD-1 nu/nu mice. The animals were sacrificed after 30 min, and urine, blood and kidney samples were taken. The kidney was frozen in liquid nitrogen, homogenized with a ball mill and extracted with 0.2 to 1 mL PBS containing 200 nmol 2-(phosphonomethyl)pentane-1,5-dioic acid (PMPA). The suspension was first centrifuged (15,000 g), and after ultrafiltration, the extracts were analysed by RP-HPLC. The blood samples were centrifuged to separate the plasma from the blood cells. Plasma proteins were removed by precipitation with acetonitrile (10 min, 4°C) and subsequent centrifugation and ultrafiltration. The blood extract was also analysed by RP-HPLC.
(§3) The stability of ^177Lu-10 and ^177Lu-11 was investigated by incubation in human serum for 48 h at 37°C and by DTPA challenge (0.4 M, RT, 48 h) and subsequent TLC analysis. Release of ^177Lu^III from the complexes was not observed under the respective experimental conditions in the examined time frame.

[4] = DTPA challenge (TLC analysis); type: physicochemical; settings: DTPA challenge 0.4 M, RT, 48 h
Experimental: as §2, §3

[5] = In vivo metabolite analysis by radio-HPLC; settings: CD-1 nu/nu mice, 0.5 h p.i.
Experimental: as §2
To investigate the influence of the amino acid composition of the spacer (KFF vs kff) on the metabolic stability in vivo, tissue homogenates and body fluids of mice injected with ^68Ga-11 and ^68Ga-12 were analysed by radio-HPLC. Extraction efficiencies from the blood and from the kidney were 56% and 43% for ^68Ga-11 and 61% and 62% for ^68Ga-12, respectively.

LNCaP tumour xenograft = experiment: Biodistribution in LNCaP-tumour-bearing mice; type: in vivo; settings: LNCaP-tumour bearing CD-1 nu/nu mice, 1 h p.i.
Experimental: All animal experiments were conducted in accordance with general animal welfare regulations in Germany (Deutsches Tierschutzgesetz, approval #55.2-1-54-2532-71-13). The prostate cancer cell line LNCaP was suspended 1/1 in serum-free medium and Matrigel (BD Biosciences, Germany) and approximately 10^7 cells in 200 μL were inoculated subcutaneously on the right shoulder of 6 to 8 weeks old CD-1 nu/nu mice (Charles River Laboratories). Tumours were grown for 2 to 4 weeks (males) and 4 to 6 weeks (females) to reach 4 to 8 mm in diameter.
Biodistribution: The ^68Ga-labelled PSMA ligands (approximately 7 to 15 MBq, 0.1 to 0.2 nmol) were injected into the tail vein of isoflurane anesthetized animals. The organ distribution was examined 1 h p.i. and quantified in a γ-counter.
A comparison of the biodistribution of compounds ^68Ga-11, ^68Ga-12 and the reference [^68Ga]HBED-CC-Ahx-KuE in LNCaP-tumour-bearing CD-1 nu/nu mice (1 h p.i.) is shown in Figure 7.

[6] = n-octanol/PBS pH 7.4, mean ± SD (n = 6)

T1 sequence (Q04609 whole entry): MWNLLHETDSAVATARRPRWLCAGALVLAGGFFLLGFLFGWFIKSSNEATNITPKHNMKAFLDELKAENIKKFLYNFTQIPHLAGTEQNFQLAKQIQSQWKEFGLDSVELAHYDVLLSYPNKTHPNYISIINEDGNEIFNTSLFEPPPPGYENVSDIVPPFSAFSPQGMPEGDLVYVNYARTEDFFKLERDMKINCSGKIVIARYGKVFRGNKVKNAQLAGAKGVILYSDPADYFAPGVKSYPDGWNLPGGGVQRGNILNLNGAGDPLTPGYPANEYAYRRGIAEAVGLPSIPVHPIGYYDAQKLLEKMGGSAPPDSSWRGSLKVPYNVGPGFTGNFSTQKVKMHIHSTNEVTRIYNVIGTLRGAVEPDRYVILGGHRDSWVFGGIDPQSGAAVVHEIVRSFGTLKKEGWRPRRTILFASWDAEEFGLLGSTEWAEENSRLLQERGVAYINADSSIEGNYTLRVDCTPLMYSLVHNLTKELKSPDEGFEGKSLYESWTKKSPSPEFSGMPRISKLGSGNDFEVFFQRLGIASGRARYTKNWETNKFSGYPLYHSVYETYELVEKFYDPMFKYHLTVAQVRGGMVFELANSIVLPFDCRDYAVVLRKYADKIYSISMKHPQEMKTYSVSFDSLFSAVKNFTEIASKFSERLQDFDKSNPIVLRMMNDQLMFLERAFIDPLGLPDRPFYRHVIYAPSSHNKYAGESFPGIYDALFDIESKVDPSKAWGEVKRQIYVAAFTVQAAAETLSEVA

Compound: [^natLu]DOTAGA-FFK(Sub-KuE) [^natLu-11]
- IC50 (PSMA): 15.1 ± 1.5 nM

Compound: [^natLu]DOTAGA-ffk(Sub-KuE) [^natLu-12]
- IC50 (PSMA): 13.1 ± 2.2 nM

Compound: [^177Lu]DOTAGA-FFK(Sub-KuE) [^177Lu-11]
- log P (o/w) [1, 6]: −3.9 ± 0.1
- Internalization (1 h) in % of ([125I]I-BA)KuE ([2]; 177Lu compounds, c = 0.5 nM): 36.1 ± 1.1%
- Release of 177Lu(III) from the complex [3]: not observed
- Release of 177Lu(III) from the complex [4]: not observed

Compound: O=C(O)CC[C@H](NC(=O)N[C@@H](CCCCNC(=O)CCCCCCC(=O)NCCCC[C@@H](NC(=O)[C@@H](Cc1ccccc1)NC(=O)[C@@H](Cc1ccccc1)NC(=O)CCC(C(=O)O)N1CCN(CC(=O)O)CCN(CC(=O)O)CCN(CC(=O)O)CC1)C(=O)O)C(=O)O)C(=O)O (some centres unmarked) [compound 12, DOTAGA-ffk(Sub-KuE)]
- IC50 (PSMA): 13.9 ± 0.4 nM

Compound: [^natGa]HBED-CC-Ahx-KuE [reference compound]
- IC50 (PSMA): 6.1 ± 0.8 nM

Compound: [^177Lu]DOTAGA-ffk(Sub-KuE) [^177Lu-12]
- log P (o/w) ([1]; n-octanol/PBS, listed for 11/12 but determined for the FFK analogue 11 only (footnote a)): −3.9 ± 0.1
- Internalization (1 h) in % of ([125I]I-BA)KuE ([2]; 177Lu compounds, c = 0.5 nM): 44.4 ± 1.8%

Compound: [^natGa]DOTAGA-ffk(Sub-KuE) [^natGa-12]
- IC50 (PSMA): 15.9 ± 0.5 nM

Compound: [^natGa]DOTAGA-FFK(Sub-KuE) [^natGa-11]
- IC50 (PSMA): 12.1 ± 3.9 nM

Compound: O=C(O)CC[C@H](NC(=O)N[C@@H](CCCCNC(=O)CCCCCCC(=O)NCCCC[C@H](NC(=O)[C@H](Cc1ccccc1)NC(=O)[C@H](Cc1ccccc1)NC(=O)CCC(C(=O)O)N1CCN(CC(=O)O)CCN(CC(=O)O)CCN(CC(=O)O)CC1)C(=O)O)C(=O)O)C(=O)O (some centres unmarked) [compound 11, DOTAGA-FFK(Sub-KuE)]
- IC50 (PSMA): 10.2 ± 1.5 nM

Compound: [^natGa]DOTA-FFK(Sub-KuE) [^natGa-10, reference compound]
- IC50 (PSMA): 29.5 ± 6.6 nM

Compound: [^68Ga]DOTAGA-FFK(Sub-KuE) [^68Ga-11]
- Intact tracer in blood [5]: 21%
- log P (o/w) [1, 6]: −3.6 ± 0.1
- Internalization (1 h) in % of ([125I]I-BA)KuE ([2]; 68Ga compounds, c = 0.2 nM): 28.4 ± 0.7%

Compound: [^68Ga]DOTA-FFK(Sub-KuE) [^68Ga-10, reference compound]
- log P (o/w) [1, 6]: −3.1 ± 0.2
- Internalization (1 h) in % of ([125I]I-BA)KuE ([2]; 68Ga compounds, c = 0.2 nM): 14.6 ± 0.8%

Compound: [^natLu]DOTA-FFK(Sub-KuE) [^natLu-10, reference compound]
- IC50 (PSMA): 54.7 ± 6.1 nM

Compound: O=C(O)CCc1ccc(O)c(CN(CCN(CC(=O)O)Cc2cc(CCC(=O)NCCCCCC(=O)NCCCC[C@H](NC(=O)N[C@@H](CCC(=O)O)C(=O)O)C(=O)O)ccc2O)CC(=O)O)c1 [HBED-CC-Ahx-KuE, reference compound]
- IC50 (PSMA): 5.7 ± 0.5 nM

Compound: [^68Ga]HBED-CC-Ahx-KuE [reference compound]
- log P (o/w) [1, 6]: −4.1 ± 0.1
- Internalization (1 h) in % of ([125I]I-BA)KuE ([2]; 68Ga compounds, c = 0.2 nM): 91.1 ± 1.7%
- Tracer uptake into liver (LNCaP tumour xenograft): 0.5 ± 0.1 % ID/g
- Tracer uptake into lung (LNCaP tumour xenograft): 1.9 ± 0.4 % ID/g
- Tracer uptake into pancreas (LNCaP tumour xenograft): 0.9 ± 0.2 % ID/g
- Tracer uptake into spleen (LNCaP tumour xenograft): 14.7 ± 2.6 % ID/g
- Tumour-to-blood ratio (LNCaP tumour xenograft): 12.5 ± 0.7
- Tumour-to-skeletal muscle ratio (LNCaP tumour xenograft): 16.2 ± 0.1
- Uptake into LNCaP tumour xenograft (LNCaP tumour xenograft): 4.7 ± 0.2 % ID/g

Compound: O=C(O)CC[C@H](NC(=O)N[C@@H](CCCCNC(=O)CCCCCCC(=O)NCCCC[C@H](NC(=O)[C@H](Cc1ccccc1)NC(=O)[C@H](Cc1ccccc1)NC(=O)CN1CCN(CC(=O)O)CCN(CC(=O)O)CCN(CC(=O)O)CC1)C(=O)O)C(=O)O)C(=O)O [compound 10, DOTA-FFK(Sub-KuE), reference compound]
- IC50 (PSMA): 13.1 ± 2.3 nM

Compound: [^177Lu]DOTA-FFK(Sub-KuE) [^177Lu-10, reference compound]
- log P (o/w) [1, 6]: −2.7 ± 0.02
- Internalization (1 h) in % of ([125I]I-BA)KuE ([2]; 177Lu compounds, c = 0.5 nM): 19.3 ± 0.9%
- Release of 177Lu(III) from the complex [3]: not observed
- Release of 177Lu(III) from the complex [4]: not observed
